Here are results for 15 compounds from patent publication US7064207B2, “Androgen receptor antagonists” (Warner Lambert Company LLC, priority 2003, dated 2006).

For this assay, the target named is T1, androgen receptor (Homo sapiens, UniProt P10275).
T1 sequence (P10275 1-920 Q868H): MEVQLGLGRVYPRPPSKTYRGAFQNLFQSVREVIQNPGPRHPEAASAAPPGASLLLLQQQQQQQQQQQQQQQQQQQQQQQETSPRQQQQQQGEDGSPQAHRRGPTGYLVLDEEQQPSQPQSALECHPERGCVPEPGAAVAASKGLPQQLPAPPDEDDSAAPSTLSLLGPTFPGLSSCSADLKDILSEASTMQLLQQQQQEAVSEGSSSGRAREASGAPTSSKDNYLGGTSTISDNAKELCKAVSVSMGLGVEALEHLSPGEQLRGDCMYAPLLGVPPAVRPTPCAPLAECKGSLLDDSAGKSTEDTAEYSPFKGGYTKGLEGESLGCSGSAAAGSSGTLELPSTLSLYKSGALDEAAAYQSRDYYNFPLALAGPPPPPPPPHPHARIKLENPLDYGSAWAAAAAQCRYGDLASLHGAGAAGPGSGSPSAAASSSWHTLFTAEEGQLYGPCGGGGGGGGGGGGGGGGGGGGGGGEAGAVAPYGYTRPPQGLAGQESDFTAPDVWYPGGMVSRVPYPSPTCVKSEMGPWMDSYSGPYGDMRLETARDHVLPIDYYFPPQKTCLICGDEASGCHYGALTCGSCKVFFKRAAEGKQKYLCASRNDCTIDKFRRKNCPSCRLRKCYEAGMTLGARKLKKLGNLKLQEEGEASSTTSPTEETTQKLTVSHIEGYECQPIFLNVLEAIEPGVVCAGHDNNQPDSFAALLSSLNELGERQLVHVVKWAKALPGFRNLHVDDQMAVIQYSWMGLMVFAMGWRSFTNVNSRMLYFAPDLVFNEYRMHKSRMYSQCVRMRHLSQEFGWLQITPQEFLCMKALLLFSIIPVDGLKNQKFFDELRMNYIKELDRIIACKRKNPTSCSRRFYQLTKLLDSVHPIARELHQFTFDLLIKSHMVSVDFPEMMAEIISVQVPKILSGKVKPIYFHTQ
Nature of the assay: AR Antagonist Cell Assay (MMTV-luciferase reporter, inhibition of DHT induction). It counts as cell-based. The note with it: MDA-MB453-MMTV clone 54-19 cells, 100 pM DHT, 17 hr, luciferase; read-out: Cell IC50. As for the experimental part: The compounds ability to antagonize the effects of androgen on the androgen receptor were determined in the protocol described immediately below.
Experimental Procedure for AR Antagonist Cell Assay
Cell line: MDA-MB453-MMTV clone 54–19. This cell line is a stable transfected cell line with MDA-MB453 cell background (human breast tumor cell expressing high level of androgen receptor). A MMTV minimal promoter containing ARE was first cloned in front of a firefly luciferase reporter gene. Then the cascade was cloned into transfection vector pUV120puro. Electroporation method was used for transfecting MDA-MB-453 cell. Puromycin resistant stable cell line was selected. Cell Culture Media and Reagents:
Culture medium: DMEM (high glucose, Gibco cat #: 11960-044), 10% FBS, and 1% L-glutamine
Plating medium: DMEM (phenol red free), 10% charcoal treated HyClone serum, 1% L-glutamine
Assay medium: DMEM (phenol red free), 1% charcoal treated HyClone serum, 1% L-glutamine, and 1% penicillin/streptomycin
3× luciferase buffer: 2% beta-mercaptoethanol, 0.6% ATP, 0.0135% luciferine in cell lysis buffer
• 1. Cells are maintained in culture medium, splitting cells when they reach 80–90% confluence • 2. To test compounds, 10,000 cells/well are plated to opaque 96 cell culture plate in 100 ul/well plating medium, culture for overnight at 37° C. in cell culture incubator • 3. Carefully remove plating medium, then add 80 ul/well of pre-warmed assay medium, add 10 ul/well testing compound (final concentration at 10 uM or 1 uM), incubate at 37° C. for 30 minutes • 4. Add 10 ul/well freshly prepared DHT (final concentration at 100 pM) to each well, incubate at 37° C. for 17 hr (overnight) • 5. Add 50 ul/well 3× luciferase buffer, incubate at room temperature for 5 minutes, then count on Luminometer The fold induction over background by 100 pM DHT in the absence of testing compounds is standardized as 100% and experimental result is expressed as percentage of inhibition by testing compounds.
Background: In a reporter assay the amount or activity of a reporter protein is the signal.

Regarding `O=c1cc(C(F)(F)F)c2cc(S(=O)(=O)N3CCN(c4ccccc4)CC3)ccc2[nH]1` [Example 28, 6-(4-Phenylpiperazine-1-sulfonyl)-4-trifluoromethyl-1H-quinolin-2-one], the concentration for half-maximal inhibition (IC50) is above 10 µM.

`O=c1cc(C(F)(F)F)c2cc(S(=O)(=O)N3Cc4ccccc4C3)ccc2[nH]1` [Example 18, 6-(1,3-Dihydroisoindole-2-sulfonyl)-4-trifluoromethyl-1H-quinolin-2-one]: the half-inhibitory concentration (IC50) was determined as 0.49 µM.

For `O=c1cc(C(F)(F)F)c2cc(S(=O)(=O)N3CCCC3CN3CCCC3)ccc2[nH]1` (stereo not drawn) [Example 41, 6-(2-Pyrrolidin-1-ylmethyl-pyrrolidine-1-sulfonyl)-4-trifluoromethyl-1H-quinolin-2-one], the half-maximal inhibitory concentration (IC50) worked out at 3.6 µM.

Regarding `CCOC(=O)C1CCN(S(=O)(=O)c2ccc3c(c2)c(C(F)(F)F)cc(=O)n3C)CC1` [Example 3, 1-(1-Methyl-2-oxo-4-trifluoromethyl-1,2-dihydroquinoline-6-sulfonyl)piperidine-4-carboxylic acid ethyl ester], the IC50 is above 10 µM.

As to `CC1CCCCN1S(=O)(=O)c1ccc2[nH]c(=O)cc(C(F)(F)F)c2c1` (stereo not drawn) [Example 37, 6-(2-Methylpiperidine-1-sulfonyl)-4-trifluoromethyl-1H-quinolin-2-one], the IC50 was found to be 1.55 µM.

In the case of `Cn1c(=O)cc(C(F)(F)F)c2cc(S(=O)(=O)N3CCCCCC3)ccc21` [Example 9, 6-(Azepane-1-sulfonyl)-1-methyl-4-trifluoromethyl-1H-quinolin-2-one], the IC50 was above 10 µM.

For `O=c1cc(C(F)(F)F)c2cc(S(=O)(=O)N3CCN(c4cnccn4)CC3)ccc2[nH]1` [Example 42, 6-(2,3,5,6-Tetrahydro-[1,2′]bipyrazinyl-4-sulfonyl)-4-trifluoromethyl-1H-quinolin-2-one], the IC50 was above 10 µM.

For the compound `O=c1cc(C(F)(F)F)c2cc(S(=O)(=O)N3CCCC4CCCCC43)ccc2[nH]1` (stereo not drawn) [Example 31, 6-(Octahydroquinoline-1-sulfonyl)-4-trifluoromethyl-1H-quinolin-2-one], the IC50 worked out at 0.44 µM.

On to `COC(=O)[C@@H]1CCCN1S(=O)(=O)c1ccc2[nH]c(=O)cc(C(F)(F)F)c2c1` [Example 19, 1-(2-Oxo-4-trifluoromethyl-1,2-dihydroquinoline-6-sulfonyl)pyrrolidine-2-carboxylic acid methylester], for which the IC50 was 2.24 µM.

Turning to `Cn1c(=O)cc(C(F)(F)F)c2cc(S(=O)(=O)N3Cc4ccccc4C3)ccc21` [Example 4, 6-(1,3-Dihydroisoindole-2-sulfonyl)-1-methyl-4-trifluoromethyl-1H-quinolin-2-one], the IC50 was above 10 µM.

As for `O=c1cc(C(F)(F)F)c2cc(S(=O)(=O)N3CCCCC3CCO)ccc2[nH]1` (stereo not drawn) [Example 29, 6-[2-(2-Hydroxyethyl)-piperidine-1-sulfonyl]-4-trifluoromethyl-1H-quinolin-2-one], the IC50 is above 10 µM.

Take `O=c1cc(C(F)(F)F)c2cc(S(=O)(=O)N3CCSC3)ccc2[nH]1` [Example 26, 6-(Thiazolidine-3-sulfonyl)-4-trifluoromethyl-1H-quinolin-2-one]: the IC50 stood at 0.16 µM.

For the compound `O=c1cc(C(F)(F)F)c2cc(S(=O)(=O)N3CCCC(CO)C3)ccc2[nH]1` (stereo not drawn) [Example 25, 6-(3-Hydroxymethylpiperidine-1-sulfonyl)-4-trifluoromethyl-1H-quinolin-2-one], the IC50 came to 3.54 µM.

Regarding `O=c1cc(C(F)(F)F)c2cc(S(=O)(=O)N3CCN(CCOCCO)CC3)ccc2[nH]1` [Example 20, 6-{4-[2-(2-Hydroxyethoxy)-ethyl]piperazine-1-sulfonyl}-4-trifluoromethyl-1H-quinolin-2-one], the IC50 is above 10 µM.

In the case of `Cn1c(=O)cc(C(F)(F)F)c2cc(S(=O)(=O)N3CCN(CCOCCO)CC3)ccc21` [Example 6, 6-{4-[2-(2-Hydroxyethoxy)-ethyl]piperazine-1-sulfonyl}-1-methyl-4-trifluoromethyl-1H-quinolin-2-one], the IC50 is above 10 µM.

A word on the IC50: it is the concentration that gives 50% inhibition.
